Experimental data as given in US6458784B1, “Vitronectin receptor antagonists” (priority 1995, dated 2002).
Like-named read-outs stand apart in the source and are kept apart here.

Key:
[1] = target: GPIIb-IIIa (fibrinogen receptor, αIIbβ3) (Homo sapiens, UniProt P05106+P08514); assay: Competitive binding to GPIIb-IIIa with [3H]-SK&F-107260 (inhibition of RGD-mediated GPIIb-IIIa binding)
Method: Ten units of outdated, washed human platelets (obtained from Red Cross) were lyzed by gentle stirring in 3% octylglucoside, 20 mM Tris-HCl, pH 7.4, 140 mM NaCl, 2 mM CaCl2 at 4° C. for 2 h. The lysate was centrifuged at 100,000 g for 1 h. The supernatant obtained was applied to a 5 mL lentil lectin sepharose 4B column (E.Y. Labs) preequilibrated with 20 mM Tris-HCl, pH 7.4, 100 mM NaCl, 2 mM CaCl2, 1% octylglucoside (buffer A). After 2 h incubation, the column was washed with 50 mL cold buffer A. The lectin-retained GPIIb-IIIa was eluted with buffer A containing 10% dextrose. All procedures were performed at 4° C.
A mixture of phosphatidylserine (70%) and phosphatidylcholine (30%) (Avanti Polar Lipids) were dried to the walls of a glass tube under a stream of nitrogen. […] The mixture was resuspended and sonicated in a bath sonicator for 5 min.
The binding assay was performed in a 96-well filtration plate assembly. (Millipore Corporation, Bedford, Mass.) using 0.22 um hydrophilic durapore membranes. The wells were precoated with 0.2 mL of 10 μg/mL polylysine (Sigma Chemical Co., St. Louis, Mo.) at room temperature for 1 h to block nonspecific binding. Various concentrations of unlabeled benzadiazapines were added to the wells in quadruplicate. […] The mixtures were incubated for 1 h at room temperature. […] Bound radioactivity remaining on the filters was counted in 1.5 mL Ready Solve (Beckman Instruments, Fullerton, Calif.) in a Beckman Liquid Scintillation Counter (Model LS6800), with 40% efficiency. […] All data points are the mean of quadruplicate determinations.
Competition binding data were analyzed by a nonlinear least-squares curve fitting procedure.

[2] = target: T1, αvβ3 (vitronectin receptor) (Homo sapiens, UniProt P05106+P06756); assay: Solid-phase [3H]-SK&F-107260 binding to αvβ3 (inhibition of vitronectin binding); details: for ratio* (enhanced binding to vitronectin receptor vs fibrinogen receptor = αIIbβ3/αVβ3): selectivity αIIbβ3/αVβ3
T1 construct: Human placenta or human platelet αvβ3 (0.1-0.3 mg/mL) in buffer T; from tissue; host or cells: human placenta or human platelets
Method: Inhibition of Vitronectin Binding
0.1-0.2 μg of αvβ3 was added per well. The plates were incubated overnight at 4° C. […] Following incubation the wells were aspirated completely and washed twice with 0.2 mL buffer A.
This solution is then diluted to the required final compound concentration.
The plates were incubated for 1 hr at room temperature. Following incubation the wells were aspirated completely and washed once with 0.2 mL of ice cold buffer A in a well-to-well fashion.

T1 sequence (P06756 31-889 limits assumed): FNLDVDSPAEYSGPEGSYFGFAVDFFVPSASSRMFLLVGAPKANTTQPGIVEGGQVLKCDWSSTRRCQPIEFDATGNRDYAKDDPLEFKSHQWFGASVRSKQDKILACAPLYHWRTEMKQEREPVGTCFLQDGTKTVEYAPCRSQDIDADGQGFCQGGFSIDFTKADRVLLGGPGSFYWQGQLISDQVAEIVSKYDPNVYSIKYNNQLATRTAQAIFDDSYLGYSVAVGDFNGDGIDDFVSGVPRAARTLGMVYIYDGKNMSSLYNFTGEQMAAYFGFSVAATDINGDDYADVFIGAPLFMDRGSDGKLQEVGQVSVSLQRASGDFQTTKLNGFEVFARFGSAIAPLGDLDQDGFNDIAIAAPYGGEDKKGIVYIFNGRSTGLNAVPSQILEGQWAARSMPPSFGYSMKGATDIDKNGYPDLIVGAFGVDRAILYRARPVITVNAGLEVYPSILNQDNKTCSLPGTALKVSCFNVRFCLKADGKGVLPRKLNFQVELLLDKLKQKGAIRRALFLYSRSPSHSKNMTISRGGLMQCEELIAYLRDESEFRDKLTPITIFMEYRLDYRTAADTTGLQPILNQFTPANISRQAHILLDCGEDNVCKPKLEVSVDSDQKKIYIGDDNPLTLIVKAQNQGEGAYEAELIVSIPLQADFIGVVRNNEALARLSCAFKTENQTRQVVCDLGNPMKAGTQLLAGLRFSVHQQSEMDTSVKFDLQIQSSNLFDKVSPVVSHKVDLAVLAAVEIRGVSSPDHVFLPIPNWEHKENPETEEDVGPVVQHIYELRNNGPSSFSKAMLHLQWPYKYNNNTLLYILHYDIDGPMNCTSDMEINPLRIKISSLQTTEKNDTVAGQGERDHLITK
T1 sequence (P06756 891-1048 partner limits assumed): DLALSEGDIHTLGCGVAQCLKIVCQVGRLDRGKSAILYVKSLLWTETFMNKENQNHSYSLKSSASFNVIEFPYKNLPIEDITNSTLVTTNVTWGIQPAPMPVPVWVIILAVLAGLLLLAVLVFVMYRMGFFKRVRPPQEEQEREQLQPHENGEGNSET
T1 sequence (P05106 27-788): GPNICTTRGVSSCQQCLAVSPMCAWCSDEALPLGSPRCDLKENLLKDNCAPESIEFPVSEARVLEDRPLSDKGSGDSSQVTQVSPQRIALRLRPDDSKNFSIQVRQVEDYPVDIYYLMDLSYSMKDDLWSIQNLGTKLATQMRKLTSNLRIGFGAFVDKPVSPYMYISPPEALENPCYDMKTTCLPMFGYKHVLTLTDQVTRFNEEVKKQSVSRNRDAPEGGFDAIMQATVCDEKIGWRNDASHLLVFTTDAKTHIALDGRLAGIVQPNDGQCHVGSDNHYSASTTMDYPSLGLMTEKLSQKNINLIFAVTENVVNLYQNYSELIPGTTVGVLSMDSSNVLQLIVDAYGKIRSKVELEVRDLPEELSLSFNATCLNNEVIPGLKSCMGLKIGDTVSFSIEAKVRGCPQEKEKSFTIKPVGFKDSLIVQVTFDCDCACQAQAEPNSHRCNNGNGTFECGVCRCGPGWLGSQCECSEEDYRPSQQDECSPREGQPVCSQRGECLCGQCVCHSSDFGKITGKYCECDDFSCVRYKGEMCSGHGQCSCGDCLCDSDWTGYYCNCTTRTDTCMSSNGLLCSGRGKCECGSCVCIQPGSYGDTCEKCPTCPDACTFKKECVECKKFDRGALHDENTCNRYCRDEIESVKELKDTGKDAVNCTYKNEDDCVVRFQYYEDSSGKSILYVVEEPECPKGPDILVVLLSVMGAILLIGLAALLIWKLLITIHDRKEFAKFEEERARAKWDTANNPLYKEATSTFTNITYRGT
Chain of GPIIb-IIIa (fibrinogen receptor, αIIbβ3) (P08514 32-887 limits assumed): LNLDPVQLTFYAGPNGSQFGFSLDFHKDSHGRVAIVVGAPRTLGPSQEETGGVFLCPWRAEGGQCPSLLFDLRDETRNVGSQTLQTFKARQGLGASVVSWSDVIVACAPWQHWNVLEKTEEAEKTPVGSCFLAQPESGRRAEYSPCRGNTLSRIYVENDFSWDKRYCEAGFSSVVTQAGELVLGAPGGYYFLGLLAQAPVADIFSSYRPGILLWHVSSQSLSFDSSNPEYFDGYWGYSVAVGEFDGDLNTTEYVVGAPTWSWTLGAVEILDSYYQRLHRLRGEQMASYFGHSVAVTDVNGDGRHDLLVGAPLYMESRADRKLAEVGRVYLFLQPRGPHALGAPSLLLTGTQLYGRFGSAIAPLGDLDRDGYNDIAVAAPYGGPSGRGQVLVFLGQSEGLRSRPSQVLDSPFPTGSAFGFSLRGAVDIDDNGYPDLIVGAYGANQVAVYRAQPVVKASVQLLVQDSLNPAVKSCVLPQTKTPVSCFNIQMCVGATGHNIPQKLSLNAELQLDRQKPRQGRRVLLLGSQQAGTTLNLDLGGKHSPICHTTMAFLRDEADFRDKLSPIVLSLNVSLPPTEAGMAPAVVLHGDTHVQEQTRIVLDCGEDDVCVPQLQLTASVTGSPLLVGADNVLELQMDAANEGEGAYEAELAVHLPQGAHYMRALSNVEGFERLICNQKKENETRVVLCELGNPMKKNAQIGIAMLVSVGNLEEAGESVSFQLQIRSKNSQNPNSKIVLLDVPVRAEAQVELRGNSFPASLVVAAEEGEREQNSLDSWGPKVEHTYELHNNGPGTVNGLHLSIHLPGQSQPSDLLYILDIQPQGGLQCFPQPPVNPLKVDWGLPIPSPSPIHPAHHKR
Chain of GPIIb-IIIa (fibrinogen receptor, αIIbβ3) (P08514 891-1039 partner limits assumed): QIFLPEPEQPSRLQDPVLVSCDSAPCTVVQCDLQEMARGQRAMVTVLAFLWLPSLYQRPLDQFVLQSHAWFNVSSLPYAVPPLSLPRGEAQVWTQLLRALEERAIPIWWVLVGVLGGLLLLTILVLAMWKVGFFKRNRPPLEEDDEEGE
Chain of GPIIb-IIIa (fibrinogen receptor, αIIbβ3) (P05106 27-788): as the sequence (P05106 27-788) above

Row | SMILES | Ki [1] [µM] | Ki ([2]; read-out: αVβ3) [µM] | ratio* (enhanced binding to vitronectin receptor vs fibrinogen receptor = αIIbβ3/αVβ3) [2] | Ki ([2]; displacement of 5.0 nM [3H]-SK&F-107260 from human placenta or platelet αvβ3, table does not say whether IC50 or Ki, method derives Ki, read-out: αVβ3) [µM] | Ki [2] [µM]
1 | CN1Cc2cc(NC(=O)[C@@H](N)Cc3ccccc3)ccc2CC(CC(=O)O)C1=O (mixture of isomers) [Example 15, 8-[[2S-amino-3-phenylpropanoyl]amino]-2-methyl-3-oxo-2,3,4,5-tetrahydro-1H-2-benzazepine-4RS-acetic acid] | 37.5 | 3.9 | 9.6 |  | 
2 | Nc1ccc(NC(=O)c2ccc3c(c2)CN(CCc2ccccc2)C(=O)C(CC(=O)O)N3)cn1 (racemic) [Example 3, (±)-7-[[(6-amino-3-pyridinyl)amino]carbonyl]-3-oxo-4-(2-phenylethyl)-2,3,4,5-tetrahydro-1H-1,4-benzodiazepine-2-acetic acid] | 110 | 9.18 | 12 |  | 
3 | CN1Cc2cc(NC(=O)c3ccccn3)ccc2CC(CC(=O)O)C1=O (racemic) [Example 5, (±)-2-methyl-3-oxo-8-[[2-(pyridinyl)carbonyl]amino]-2,3,4,5-tetrahydro-1H-2-benzazepine-4-acetic acid] | > 50 | 15.3 | >3 |  | 
4 | CN1Cc2cc(NC(=O)OCc3ccccc3)ccc2CC(CC(=O)O)C1=O (racemic) [Example 6, (±)-8-[(benzyloxycarbonyl)amino]-2-methyl-3-oxo-2,3,4,5-tetrahydro-1H-2-benzazepine-4-acetic acid] | 17.5 | 7.5 | 2.3 |  | 
5 | CN1Cc2cc(C(=O)Nc3cccc(C(N)=O)c3)ccc2NC(CC(=O)O)C1=O (racemic) [Example 8, (±)-7-[[[3-(aminocarbonyl)phenyl]amino]carbonyl]-4-methyl-3-oxo-2,3,4,5-tetrahydro-1H-1,4-benzodiazepine-2-acetic acid] | > 50 | 12.3 | >4 |  | 
6 | CN1Cc2cc(C(=O)N3CCN(c4ccccc4)CC3)ccc2NC(CC(=O)O)C1=O (racemic) [Example 9, (±)-4-methyl-3-oxo-7-[1-(4-phenylpiperazinyl)carbonyl]-2,3,4,5-tetrahydro-1H-1,4-benzodiazepine-2-acetic acid] | > 100 |  | >11 | 9.23 | 
7 | CN1Cc2cc(C(=O)N3CCNCC3)ccc2NC(CC(=O)O)C1=O (racemic) [Example 10, (±)-4-methyl-3-oxo-7-[(1-piperazinyl)carbonyl]-2,3,4,5-tetrahydro-1H-1,4-benzodiazepine-2-acetic acid] | 2.13 | 1.1 | >1.9 |  | 
8 | CN1Cc2cc(C(=O)N3CCC(N4CCCCC4)CC3)ccc2NC(CC(=O)O)C1=O (racemic) [Example 11, (±)-4-methyl-3-oxo-7-[1-[4-(1-piperidinyl)piperidinyl]carbonyl]-2,3,4,5-tetrahydro-1H-1,4-benzodiazepine-2-acetic acid] | 20.1 | 1.45 | 14 |  | 
9 | CN1Cc2cc(C(=O)N3CCN(Cc4ccccc4)CC3)ccc2NC(CC(=O)O)C1=O (racemic) [Example 13, (±)-4-methyl-3-oxo-7-[1-[4-(phenylmethyl)piperazinyl]carbonyl]2,3,4,5-tetrahydro-1H-1,4-benzodiazepine-2-acetic acid] | 15.4 | 9.5 | 1.62 |  | 
10 | CN1Cc2cc(C(=O)N3CCN(c4ncccn4)CC3)ccc2NC(CC(=O)O)C1=O (racemic) [Example 14, (±)-4-methyl-3-oxo-7-[1-[4-(2-pyrmidinyl)piperazinyl]carbonyl]-2,3,4,5-tetrahydro-1H-1,4-benzodiazepine-2-acetic acid] | > 50 | 6.2 | >8 |  | 
11 | CN(CC(O)c1ccccc1)C(=O)c1ccc2c(c1)CN(C)C(=O)C(CC(=O)O)C2 (racemic) [Example 16, (±)-8-[[[(2-hydroxy-2-phenyl)ethyl]methylamino]carbonyl]-2-methyl-3-oxo-2,3,4,5-tetrahydro-1H-2-benzazepine-4-acetic acid] | 28 | 9.5 | 2.9 |  | 
12 | CN(CCO)C(=O)c1ccc2c(c1)CN(C)C(=O)C(CC(=O)O)N2 (racemic) [Example 17, (±)-7-[[[N-(2-hydroxyethyl)-N-methyl]amino]carbonyl]-4-methyl-3-oxo-2,3,4,5-tetrahydro-1H-1,4-benzodiazepine-2-acetic acid] | > 50 | 15.2 | >3 |  | 
13 | CN1Cc2cc(NC(=O)CNc3ccccn3)ccc2CC(CC(=O)O)C1=O (racemic) [Example 18, (±)-8-[[(2-(2-pyridinylamino)acetyl]amino]-2-methyl-3-oxo-2,3,4,5-tetrahydro-1H-2-benzazepine-4-acetic acid] | 30 | 1.3 | 23 |  | 
14 | CN1Cc2cc(NC(=O)CN)ccc2CC(CC(=O)O)C1=O (racemic) [Example 20, (±)-8-[(2-aminoacetyl)amino]-2-methyl-3-oxo-2,3,4,5-tetrahydro-1h-2-benzazepine-4-acetic acid] | 45 | 1.55 | 29 |  | 
15 | CN1Cc2cc(NC(=O)CCN)ccc2CC(CC(=O)O)C1=O (racemic) [Example 21, (+/±)-8-[(3-aminopropanoyl)amino]-2-methyl-3-oxo-2,3,4,5-tetrahydro-1H-2-benzazepine-4-acetic acid] | 52 | 0.85 | 61 |  | 
16 | CN1Cc2cc(C(=O)NCc3cccnc3)ccc2NC(CC(=O)O)C1=O (racemic) [Example 22, (±)-4-methyl-3-oxo-7-[[[(3-pyridinyl)methyl]amino]carbonyl]-2,3,4,5-tetrahydro-1H-1,4-benzodiazepine-2-acetic acid] | 27 |  | 3 |  | 9.02
